The record followed here is article doi:10.1101/2024.09.26.610356v2 (biorxiv, 2024).

For test [1], the target named is T1, human triosephosphate isomerase (TPI) (Homo sapiens, UniProt P60174). In words: GAPDH-coupled kinetic assay, dose response. The class given is biochemical.
Test [2] concerns the target T1, human triosephosphate isomerase (TPI). In words: Michaelis-Menten kinetics, GAPDH-coupled assay. Type of test: biochemical.
For test [3] the target is unchanged. In words: label-free MST. The class given is binding.
The target in test [4] is T2, human glucose-6-phosphate isomerase (GPI) (Homo sapiens, UniProt P06744). In words: label-free MST. Type of test: binding.
In test [5] the target is T2, human glucose-6-phosphate isomerase (GPI). In words: G6PDH-coupled kinetic assay, dose response. The class given is biochemical.
Test [6] has the same target. In words: Michaelis-Menten kinetics, G6PDH-coupled assay. The class given is biochemical.

T1 sequence (P60174 whole entry): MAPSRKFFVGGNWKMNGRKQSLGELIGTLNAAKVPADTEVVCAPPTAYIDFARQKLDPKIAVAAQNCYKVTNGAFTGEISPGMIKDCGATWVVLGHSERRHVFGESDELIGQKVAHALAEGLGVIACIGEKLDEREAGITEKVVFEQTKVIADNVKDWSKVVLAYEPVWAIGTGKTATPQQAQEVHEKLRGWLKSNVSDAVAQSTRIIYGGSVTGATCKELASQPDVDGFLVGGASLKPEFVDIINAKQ

By EC50 is commonly meant the concentration needed to bring the measured effect to its halfway point. The term Ki denotes the dissociation constant of the complex between target and ligand, obtained from inhibition or displacement. Usually Kd stands for a measure of binding affinity in units of concentration. Low readings indicate a tighter complex, high ones a looser complex. In the case of `CC(C(=O)O)C(=O)O` [Methylmalonate], in test [1], the concentration giving a half-maximal response (EC50) came out at 16.3 ± 2.54 mM. Affinity in test [2] was put at a Ki of 17.3 mM. For the same molecule, the Kd in test [3] came to 12.2 ± 1.9 mM.
In turn, `O=P(O)(O)OC(CO)CO` [Glycerol-2-phosphate] returned an EC50 in test [1] of 7.31 ± 1.22 mM. The molecule also came in with a Ki in test [2] of 1.89 mM. Binding in test [3] was put at a Kd of 5.31 ± 1.07 mM.
Taken in the same sequence, the figures for `O=P(O)(O)OC[C@H](O)CO` [Glycerol-3-phosphate] were 8.65 ± 1.49 mM, 2.04 mM and 6.79 ± 2.3 mM.
In the case of `C=C(OP(=O)(O)O)C(=O)O` [Phosphoenolpyruvate], binding in test [4] was put at a Kd of 11.1 ± 1.44 mM. The molecule also came in with an EC50 in test [5] of 11.8 ± 1.33 mM. Further, affinity in test [6] was put at a Ki of 5.61 mM.
The matching figures for `NCCc1c[nH]cn1` [Histamine]: 13.1 ± 0.64 mM, 7.35 ± 1.26 mM and 9.25 mM.
For `NO` [Hydroxylamine], the EC50 in test [5] amounted to 14.6 ± 1.99 mM. Besides, the affinity in test [6] corresponds to a Ki of 21.1 mM.
`C/C(=C/C(=O)O)C(=O)O` [Citraconate] returned a Kd in test [4] of 20.1 ± 2.03 mM. The molecule further registered an EC50 in test [5] of 8.05 ± 2.34 mM. In test [6], this molecule displayed a Ki of 2.17 mM.
`O=C(O)/C=C\C(=O)O` [Maleate]: in test [4], the Kd is 14.4 ± 2.07 mM. This molecule also came in with a half-maximal effective concentration (EC50) in test [5] of 9.48 ± 2.85 mM. Moreover, the Ki in test [6] is 7.15 mM.
For the molecule `O=C(O)C(=O)O` [Oxalate], in test [1], the EC50 came out at 12.6 ± 0.76 mM. Further, the affinity in test [2] corresponds to a Ki of 27.3 mM. The molecule further registered a Kd in test [3] of 19.1 ± 1.38 mM.
In test [4], `Nc1ncnc2c1ncn2[C@@H]1O[C@H](COP(=O)(O)OP(=O)(O)O)[C@@H](O)[C@H]1O` [ADP] returned a Kd of 19.3 ± 0.96 mM. Moreover, the response in test [5] was half-maximal at 8.66 ± 1.37 mM (EC50). The molecule also yielded a Ki in test [6] of 3.97 mM.
In turn, `O=C(CO)COP(=O)(O)O` [Dihydroxyacetone phosphate] registered a dissociation constant Kd in test [4] of 17.5 ± 0.98 mM. The EC50 in test [5] came out at 8.24 ± 1.94 mM. For the same molecule, the affinity in test [6] corresponds to a Ki of 4.47 mM.
